Source: patent US20230210906A1, “Composite 3D Brain Organoids with Optic Structures, Uses Thereof and Culture Medium for Obtaining Them” (priority 2022, published 2023)
Like-named read-outs stand apart in the source and are kept apart here.

What was measured:
[1] = system: optic vesicle brain organoids (cell line GM25256)
Experimental: Optic vesicle organoids of day 40 to 50 were transferred to wells of a 12-wellplate each with 2 ml of optic organoid medium and kept in absolute darkness at 37° C. and 5% CO2 for 24 hours before electroretinogram (ERG) experiments. For ERG, each organoid was placed under red light in an electrode chamber. The electrode chamber was then placed into the dark chamber of the ERG apparatus and connected to the superfusion system containing optic organoid medium. For dose dependent light sensitivity, organoids were exposed to 500 milliseconds long flashes of 2000, 20.000 and 200.000 mlux. Each light intensity was repeated three times in a time interval of 3 min. before the next higher light intensity was applied and responses were recorded. Speed of superfusion was 0.5 ml/min.
For a third experiment, organoids were superfused in optic organoid medium with higher speed of 2 ml/min. […] For isolating the A-wave by blocking signal transduction from photoreceptors to next the retinal cell layers, 10 mM aspartate was added to the medium after the equilibration time and electric response was continuously recorded. Finally, aspartate was washed out by adding optic organoid medium without aspartate into the system while recording of electric signals as response to flashes.

[2] = system: rod-bipolar synaptic disjunction; details: cited from earlier work
[3] = system: A2E formation and lipofuscin accumulation; details: mouse model of recessive Stargardt's macular degeneration; cited from earlier work
[4] = system: cells of the cell line IMR90; assay: Optic vesicle formation in iPSC-derived 3D brain organoids exposed to retinol acetate; format: cell-based, human; details: for Percentage of organoids with optic vesicles (%): cell line IMR90
Experimental: It is important to start differentiation with a well-maintained human iPS cell culture. Cells were splitted once after thawing, mycoplasma tested and checked for appropriate stem cell morphology. Before inducing neural differentiation, iPS cells were dissociated to single cells. Therefore, iPS cells were once carefully washed with pre-warmed DMEM/F12 (Gibco) and then treated for 5 min. at 37° C. with Accutase (Sigma-Aldrich). After cell collection, centrifuging and counting, cells were diluted in neural induction medium (NIM, Stem cell technologies) plus Rockinhibitor (10 μM, Y-27632 2HCl, Selleck Chem) at a concentration of 1×10^5 cells per ml. 100 μl of this cell suspension was given into each well of a 96-well v-bottom low adherent plate and incubated at 37° C. and 5% CO2. Half of the medium was changed every day for 5 days until neurospheres were formed.
At day 5 of neural induction, the neurospheres were collected carefully with a cut […] pipette tip and transferred to a 100 mm petri dish containing “neurosphere medium” (Table 9). Additionally, 0.1% Matrigel was added to the medium and neurospheres were incubated for 5 days at 37° C. and 5% CO2. At day 3, 2 ml of “optic vesicle 3D brain organoid medium” (Table 10) containing retinol acetate was added. At day 5, neurospheres were transferred to spinner flasks containing 100 ml “optic vesicle 3D brain organoid medium” ([…]) to let the neurospheres developing to optic vesicle containing brain organoids. […] Optic vesicle organoids were collected for experiments at day 20, 30 and 50. For each cell line, we performed at least 3-4 rounds (batches) of optic vesicle 3D brain organoid generation. Each batch comprises of starting from thawing iPSCs until generating optic vesicle organoids. Morphological and functional optic vesicles brain organoids were easily identified by visibly pigmented areas and used for further analyses.

[5] = system: sodium channel of organoid neurons (cell lines IMR-90 and GM25256); format: cell-based, human

## N[C@@H](CC(=O)O)C(=O)O [aspartate]
[1]
  ERG amplitude upon light flashes, single organoid recording: < −400 pV
  ERG hyperpolarization after washout of aspartate: −147 pV
  ERG hyperpolarization on average during aspartate treatment: −278 pV
  Effect on ERG b-wave: blocked the b-wave

## O=S(=O)(c1cccc2cnccc12)N1CCCNCC1 [fasudil]
[2]; intravitreal injection
  Effect on rod-bipolar synaptic disjunction: effective
[2]; subretinal injection
  Effect on rod-bipolar synaptic disjunction: reduces rod-bipolar synaptic disjunction

## CC1=C(/C=C/C(C)=C/C=C/C(C)=C\C(=O)O)C(C)(C)CCC1 [isotretinoin]
[3]
  Effect on A2E formation and lipofuscin accumulation: inhibits A2E formation and lipofuscin accumulation

## retinol acetate [Retinoic acetate]
[4]; 40 nM
  Percentage of organoids with optic vesicles (%): 21%
[4]; 60 nM, among concentrations ranging from 0 to 120 nM
  Yield of optic vesicle brain organoids: best results (highest yield of optic vesicle brain organoids)
[4]; 60 nM, at around day 30
  Formation of pigmented structures (possibly primordial eye fields): reproducibly induced the formation of pigmented structures
[4]; 60 nM
  Percentage of organoids with optic vesicles (%): 80%
[4]; 100 nM
  Percentage of organoids with optic vesicles (%): 15%
[4]; 150 nM
  Percentage of organoids with optic vesicles (%): 10%
[4]; 200 nM
  Percentage of organoids with optic vesicles (%): 10%
[4]; 250 nM
  Percentage of organoids with optic vesicles (%): 8%

## NC1=N[C@H](O)[C@H]2[C@H]3O[C@]4(O)O[C@@H]([C@@H](O)[C@@]2(N1)[C@@H]4O)[C@]3(O)CO [TTX, Tetrodotoxin]
[5]
  Effect on Na+ current (inward current) of neurons: blocked Na+ current
  Sensitivity of outward (outwardly rectifying K+) current: TTX insensitive
